Test results as given in ChEMBL document CHEMBL1201862, “PubChem BioAssay data set” (2004).
Calls of active or inactive are those of the source. Rule as the data show it, for most assays here: actives have a measured EC50 and inactives only a lower limit.

How the values were obtained:
[1] = tested on: Streptococcus sp. 'group A'; assay: growth inhibition of control SK(-) GAS strain, dose response, counter-screen for streptokinase expression inhibitor project, luminescence, kanamycin, BacTiterGlo, confirmation (AID 1900); type: functional, organism-based
[2] = target: T1, Streptokinase A (Streptococcus pyogenes serotype M1, UniProt P10520); assay: S. pyogenes streptokinase expression inhibitors, potency, dose response, plasminogen activation absorbance, OD405 (AID 1914); type: functional, Streptococcus pyogenes M1 GAS;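 also: secreted streptokinase activity via plasminogen activation per viability signal from cell pellet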
T1 sequence (P10520 whole entry): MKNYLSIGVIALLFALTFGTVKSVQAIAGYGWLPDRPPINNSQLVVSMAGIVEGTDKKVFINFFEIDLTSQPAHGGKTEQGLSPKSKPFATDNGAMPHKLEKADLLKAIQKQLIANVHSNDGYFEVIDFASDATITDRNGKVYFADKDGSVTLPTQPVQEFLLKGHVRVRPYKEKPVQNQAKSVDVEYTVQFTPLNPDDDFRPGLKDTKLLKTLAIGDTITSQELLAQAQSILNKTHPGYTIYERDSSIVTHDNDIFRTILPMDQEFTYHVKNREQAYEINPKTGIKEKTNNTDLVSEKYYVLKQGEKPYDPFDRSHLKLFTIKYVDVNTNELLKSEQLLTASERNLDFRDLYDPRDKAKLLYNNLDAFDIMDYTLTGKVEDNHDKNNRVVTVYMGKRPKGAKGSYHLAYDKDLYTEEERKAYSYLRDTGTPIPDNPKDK

[3] = tested on: Streptococcus; assay: Group A Streptococcus viability loss, dose response, counter-screen for streptokinase expression inhibitor project, luminescence, BacTiterGlo (AID 1915); type: functional, organism-based;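 also: potency for reduction of bacterial viability or growth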
[4] = tested on: H9c2; assay: cells; type: functional, cell-based; conditions: Rattus norvegicus, H9c2, Myocardium;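 also: confirmatory concentration-response retest of ultra-high-throughput screening hits for modulation of myocardial damage; cell death induced by hydrogen peroxide oxidative stress; compound pretreatment for 60 min then peroxide exposure for 2 h; potency is for protecting the cells against peroxide damage rather than for killing them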
[5] = target: T2, Corticotropin-releasing factor receptor 2/Corticotropin-releasing factor-binding protein (Homo sapiens, UniProt P24387+Q13324); assay: activators of CRF receptor 2 with binding protein – uHTS hits, confirmation (AID 602473); type: functional; conditions: read-out: EC50_Mean
T2 sequence (Q13324 whole entry): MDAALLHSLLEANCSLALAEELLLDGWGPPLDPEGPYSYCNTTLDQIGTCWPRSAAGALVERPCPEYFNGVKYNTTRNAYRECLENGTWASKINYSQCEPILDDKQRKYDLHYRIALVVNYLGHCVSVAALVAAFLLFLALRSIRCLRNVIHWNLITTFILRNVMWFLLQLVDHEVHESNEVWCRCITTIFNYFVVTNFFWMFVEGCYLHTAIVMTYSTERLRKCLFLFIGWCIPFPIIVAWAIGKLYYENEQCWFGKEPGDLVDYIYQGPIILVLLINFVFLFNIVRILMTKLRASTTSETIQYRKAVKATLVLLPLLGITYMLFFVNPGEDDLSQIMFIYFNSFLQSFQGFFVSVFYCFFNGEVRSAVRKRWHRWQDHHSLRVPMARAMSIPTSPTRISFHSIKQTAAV
T2 sequence (P24387 whole entry): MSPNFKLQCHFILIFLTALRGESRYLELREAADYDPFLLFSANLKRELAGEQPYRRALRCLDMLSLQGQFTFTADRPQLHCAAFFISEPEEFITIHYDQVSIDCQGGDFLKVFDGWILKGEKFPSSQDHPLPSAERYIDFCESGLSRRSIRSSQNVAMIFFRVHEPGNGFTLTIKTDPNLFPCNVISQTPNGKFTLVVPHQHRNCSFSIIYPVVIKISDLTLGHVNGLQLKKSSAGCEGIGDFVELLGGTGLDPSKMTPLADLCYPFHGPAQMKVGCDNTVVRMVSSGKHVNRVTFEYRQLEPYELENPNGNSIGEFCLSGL

[6] = target: T2, Corticotropin-releasing factor receptor 2/Corticotropin-releasing factor-binding protein; assay: Dose Response confirmation of uHTS hits for small molecule antagonists of the CRF-binding protein and CRF-R2 receptor complex.; type: functional; conditions: read-out: IC50_Mean
[7] = Luminescence Cell-Based Dose Response HTS to Identify Activators of Luciferase Translation or Activity in H4 […] Cells. [Related pubchem assays: 1829 (Project Summary), 1814 (Primary HTS)]; type: functional
[8] = tested on: H4; assay: Luminescence Cell-Based Dose Response HTS to Identify Activators of 5'UTR Stem-Loop Driven Prion Protein mRNA Translation in H4 Neuroglioblastoma Cells. [Related pubchem assays: 1829 (Project Summary), 1814 (Primary HTS)]; type: functional; conditions: Homo sapiens

| Structure (SMILES) | EC50 [1] | EC50 [2] | EC50 [3] | EC50 [5] | IC50 [6] | also measured |
| --- | --- | --- | --- | --- | --- | --- |
| COc1cc(/C=C2\SC(Nc3cccnc3)=NC2=O)cc(OC)c1OC | 36.8 µM (active) | > 150 µM (not active) | 68.5 µM (active) | – | – | – |
| Cc1nn(C)cc1C(C(=O)NC1CCCCC1)N(C(=O)Cc1cccs1)c1ccc(Cl)cc1 (stereo unspecified) | – | – | – | 12 µM (active) | – | IC50 [4]: 15.2 µM (active) |
| COc1ccc2nc(O)c(CN(CC3CCCO3)S(=O)(=O)c3ccccc3F)cc2c1 (stereo unspecified) | – | – | – | – | – | IC50 [4]: 15.5 µM (active) |
| O=C(NCCN1CCOCC1)c1cnn2c(-c3ccccc3)cc(-c3ccccc3)nc12 | – | – | – | – | – | IC50 [4]: > 79 µM (inactive) |
| CSc1nc2cc(Cl)ccc2s1 | – | – | – | > 53 µM (inactive) | > 47.1 µM (inactive) | – |
| CC1CCN(C(=O)C2CCN(S(=O)(=O)c3cccnc3)CC2)CC1 | – | – | – | > 53 µM (inactive) | > 47.1 µM (inactive) | – |
| Nc1nc(CN2CCC(Cc3ccccc3)CC2)nc(Nc2ccccc2)n1 | 14.8 µM (active) | > 150 µM (not active) | > 150 µM (not active) | – | – | – |
| CCCC(=O)NCCc1ccc(F)cc1 | > 150 µM (not active) | > 150 µM (not active) | > 150 µM (not active) | – | – | – |
| C=C(C)CSc1nc2c(cc1C#N)CCC2 | – | – | – | > 53 µM (inactive) | > 47.1 µM (inactive) | – |
| O[C@@H]1CCCN2CCc3c([nH]c4ccccc34)[C@H]12 | > 150 µM (not active) | > 150 µM (not active) | > 150 µM (not active) | – | – | – |
| Cc1ccn(C(=O)c2ccc(NC(=O)C3CCCCC3)cc2)n1 | – | – | – | > 53 µM (inactive) | > 47.1 µM (inactive) | – |
| CC(C)C/C=C1\CCc2c([nH]c3ccccc23)C1=O | – | – | – | – | – | EC50 [7]: 27.8 µM (active); EC50 [8]: 45.4 µM (active) |
| O=C(COc1ccc(Cl)cc1Cl)Nc1ccccc1NS(=O)(=O)c1cccs1 | – | – | – | 33.1 µM (active) | > 47.1 µM (inactive) | – |
| COC(=O)c1ccc(NC(=O)COC(=O)CSc2nc(C)cc(C)n2)cc1 | – | – | – | > 53 µM (inactive) | > 47.1 µM (inactive) | – |
| O=C(Nc1ccc(F)cc1)c1nc2c(nnn2Cc2cccc3ccccc23)c(=O)[nH]1 | – | > 150 µM (not active) | – | – | – | – |
| CC(C)(C)NS(=O)(=O)c1ccc(NS(=O)(=O)Cc2ccccc2)cc1 | > 150 µM (not active) | > 150 µM (not active) | > 150 µM (not active) | – | – | – |
| COc1ccc(N/C=C(\C#N)c2nc3ccccc3n2C)c(OC)c1 | – | – | – | – | – | IC50 [4]: > 79 µM (inactive) |
| O=C(Nc1scc(-c2ccc(Br)cc2)c1C(=O)O)c1ccccc1F | 2.83 µM (active) | 9.9 µM (active) | 11 µM (active) | – | – | – |
| Cc1ccc(C(C)C)cc1OCC(=O)Nc1ccccc1N1CCCC1 | – | 14.1 µM (active) | > 150 µM (not active) | – | – | – |
| Cc1ccc(C(=O)Oc2ccc(Cl)c3cccnc23)cc1[N+](=O)[O-] | – | – | – | – | – | IC50 [4]: > 79 µM (inactive) |
